According to ChEMBL document CHEMBL1135107, “Synthesis and evaluation of new antimalarial analogues of quinoline alkaloids derived from Cinchona ledgeriana Moens ex Trimen” (Bioorg Med Chem Lett, 2002):

Assays:
Plasmodium falciparum [1] = experiment: In vitro antimalarial activity against Plasmodium falciparum W2 in human erythrocytes by [3H]hypoxanthine uptake; type: functional, organism-based
Plasmodium falciparum [2] = experiment: In vitro inhibition of parasite development of Plasmodium falciparum W2 in human erythrocytes; type: functional, organism-based

SMILES	IC50 (Plasmodium falciparum [1]; Plasmodium falciparum) [nM]	IC50 (Plasmodium falciparum [2]; Plasmodium falciparum) [nM]	IC50 (Plasmodium falciparum [1]) [nM]	IC50 (Plasmodium falciparum [2]) [nM]
C=C[C@H]1C[N@+]2(Cc3cc(C(C)(C)C)c(OC)c(C(C)(C)C)c3)CC[C@H]1C[C@H]2[C@H](O)c1ccnc2ccccc12	510	160	–	–
C=C[C@H]1C[N@+]2(Cc3cc(C(C)(C)C)c(OC)c(C(C)(C)C)c3)CC[C@H]1C[C@@H]2[C@@H](O)c1ccnc2ccccc12 (stereo in doubt; form 1)	–	–	800	530
C=C[C@H]1C[N@+]2(Cc3cc(C(C)(C)C)c(OC)c(C(C)(C)C)c3)CC[C@H]1C[C@@H]2[C@@H](O)c1ccnc2ccccc12 (stereo in doubt; form 2)	–	–	360	160
C=C[C@H]1CN2CC[C@H]1C[C@H]2[C@H](O)c1ccnc2ccccc12 [CINCHONIDINE]	380	290	–	–
C=C[C@H]1CN2CC[C@H]1C[C@@H]2[C@@H](O)c1ccnc2ccccc12 [CINCHONINE]	220	51	–	–
C=C[C@H]1CN2CC[C@H]1C[C@@H]2[C@@H](O)c1ccnc2ccc(OC)cc12 [QUINIDINE]	160	4	–	–
C=C[C@H]1CN2CC[C@H]1C[C@H]2[C@H](O)c1ccnc2ccc(OC)cc12 [QUININE]	370	120	–	–

The next lines start with results.

IC50 (Plasmodium falciparum [1]; Plasmodium falciparum) [nM]	IC50 (Plasmodium falciparum [2]; Plasmodium falciparum) [nM]	SMILES	IC50 (Plasmodium falciparum [1]) [nM]	IC50 (Plasmodium falciparum [2]) [nM]
410	100	C=C[C@H]1C[N@+]2(Cc3cc(C(C)(C)C)c(OC)c(C(C)(C)C)c3)CC[C@H]1C[C@@H]2[C@@H](OCc1ccccc1)c1ccnc2ccc(OC)cc12	–	–
380	99	C=C[C@H]1C[N@+]2(Cc3cc(C(C)(C)C)c(OC)c(C(C)(C)C)c3)CC[C@H]1C[C@H]2[C@H](O)c1ccnc2ccc(OC)cc12	–	–
520	63	C=C[C@H]1C[N@+]2(Cc3cc(C(C)(C)C)c(OC)c(C(C)(C)C)c3)CC[C@H]1C[C@H]2[C@H](OCc1ccccc1)c1ccnc2ccccc12	–	–
1000	510	C=C[C@H]1C[N@+]2(Cc3cc(C(C)(C)C)c(OC)c(C(C)(C)C)c3)CC[C@H]1C[C@@H]2[C@@H](O)c1ccnc2ccc(OC)cc12	–	–
620	150	C=C[C@H]1C[N@+]2(Cc3cc(C(C)(C)C)c(OC)c(C(C)(C)C)c3)CC[C@H]1C[C@H]2[C@H](OCc1ccccc1)c1ccnc2ccc(OC)cc12	–	–
1200	230	C=CCO[C@@H](c1ccnc2ccc(OC)cc12)[C@H]1C[C@@H]2CC[N@@+]1(Cc1cc(C(C)(C)C)c(OC)c(C(C)(C)C)c1)C[C@@H]2C=C	–	–
1100	120	C=C[C@H]1C[N@+]2(Cc3cc(C(C)(C)C)c(OC)c(C(C)(C)C)c3)CC[C@H]1C[C@@H]2[C@@H](OCc1ccccc1)c1ccnc2ccccc12	–	–
1000	410	C=CCO[C@H](c1ccnc2ccc(OC)cc12)[C@@H]1C[C@@H]2CC[N@@+]1(Cc1cc(C(C)(C)C)c(OC)c(C(C)(C)C)c1)C[C@@H]2C=C	–	–
1100	580	C=CCO[C@H](c1ccnc2ccccc12)[C@@H]1C[C@@H]2CC[N@@+]1(Cc1cc(C(C)(C)C)c(OC)c(C(C)(C)C)c1)C[C@@H]2C=C	–	–
